Results taken from patent US4871527A, “No-carrier-added [^18 F]-N-fluoroalkylspiroperidols” (The United States of America as represented by the United …, priority 1987, dated 1989).
“Also recorded” adds a separate entry of the source. Like-named read-outs stand apart in the source and are kept apart here.

Assays:
[1] = tested on: dopamine receptors; assay: Uptake in the brain and radiation burden (general statement); conditions: in vivo
[2] = tested on: dopamine receptors; assay: PET baboon studies: brain kinetics in striatum and cerebellum
From the text: A young adult (11 kg) female baboon (Papio anubis) was anesthetized initially with ketamine and subsequently maintained under halothane/nitrous oxide anesthesia for two PETT studies as described in the Arnett et al. paper referenced in Example 7. […] PET scans were made continually for 4 hr from the time of radioisotope injection. Regions of interest corresponding to the striata and cerebellum were selected.

[3] = Metabolic stability of N-(3-[^18 F]fluoropropyl)spiroperidol in mouse brains; assay type: in vivo, female albino mice (BNL strain); conditions: for Percent Recovery of Total ^18 F Applied to C-18 Sep-Pak, H2O Eluate / Percent Recovery of Total ^18 F Applied to C-18 Sep-Pak, MeOH Eluate / Percent Recovery of Total ^18 F Applied to C-18 Sep-Pak, NaOH Eluate / Percent of ^18 F in MeOH as N-(3-[^18 F]fluoropropyl)spiroperidol / remaining at 1 h: 1 hr; for remaining at 1 h: mouse, brain, iv, read-out: Percent of Unchanged N-(3-[^18 F]fluoropropyl)spiroperidol
Description: Metabolic Stability of N-(3-[^18 F]fluoropropyl)spiroperidol in Mouse Brains
Three female albino mice (BNL strain), 27-30 g, were injected in a lateral tail vein with […] of N-(3-[^18 F]fluoropropyl)spiroperidol in 100 μl of isotonic saline solution. At 1 hr after injection, the mice were killed by cervical dislocation. The brain was rapidly removed, homogenized either in a mixture of 2 ml of CH3 OH and 4 ml of 0.4M HClO4, or in 2 ml of CH3 OH alone. The samples were centrifuged,and the CH3 OH fractions (or the entire supernants in the case of CH3 OH alone) were analyzed for unchanged N-(3-[^18 F]fluoropropyl)spiroperidol [Arnett et al., Life Sci., 36, 1359-1366 (1985)] and analyzed by HPLC (C18 column, 4.5×250 mm, CH3 OH:0.2N NH4 CO2 H (90:10), 1.5 ml/min).
^a The precipitates were separated without further washings.
^b The precipitates were separated and washed with MeOH--HClO4

[4] = Tissue distribution of NCA N-(3-[^18 F]fluoropropyl)spiroperidol in mice after butaclamol pretreatment; assay type: in vivo, female albino mice (BNL strain)
Description: Tissue Distribution of NCA N-(3-[^ 18 F]fluoropropyl)spiroperidol in Mice
Female albino mice (BNL strain), 22-27 g, were injected in a lateral tail vein with 24-85 μCi of N-(3-[^18 F]fluoropropyl)spiroperidol in 100 μl of isotonic saline solution.
Mice were pretreated with 2 mg/kg, i.v., of either (-)butaclamol (-), or
(+)butaclamol (+). The mice were killed by cervical dislocation and
decapitation at 5, 60 and 120 min after injection. The dissected tissues
were blotted to remove adhering blood and placed in tared counting vials.
A sample of blood was obtained from the trunk immediately after
decapitation. The entire tail was counted to verify the patency of the
tail vein injection. All samples were counted and weighed, and the
activity expressed as percent of injected dose per organ or percent of
injected dose per gram of tissue.

[5] = tested on: dopamine receptors; assay: Affinity for dopamine receptors; assay type: binding
[6] = Baboon plasma analyses: blood kinetics and metabolism; assay type: in vivo, baboon (Papio anubis)
Description: Baboon Plasma Analyses: Blood was sampled from the femoral artery at initial intervals of 5 sec. Aliquots of plasma were counted to determine the total plasma radioactivity clearance curve. Representative samples (Table 6) were also analyzed for unchanged N-(3-[^18 F]fluoropropyl)spiroperidol.
The baboon blood total plasma radioactivity clearance curve following injection of NCA N-(3-[^18 F]fluoropropyl)spiroperidol is depicted in FIG. 1. The blood clearance was very rapid. The appearance of metabolites in the blood was also rapid (Table 6). At 10 min after injection 68% of plasma radioactivity was due to unchanged N-(3-[^18 F]fluoropropyl)spiroperidol.
*Plasma samples were extracted with MeOH--0.4M HClO4

[7] = baboon, (-)-butaclamol pretreatment
[8] = mouse brain, 2X MeOH-HClO4 (washed again)
[9] = mouse brain, MeOH-HClO4 extraction, no further washings
[10] = (+)-butaclamol pretreatment, 5 min
[11] = (+)-butaclamol pretreatment, 60 min
[12] = (+)-butaclamol pretreatment, 120 min
[13] = (-)-butaclamol pretreatment, 5 min
[14] = (-)-butaclamol pretreatment, 60 min
[15] = (-)-butaclamol pretreatment, 120 min
[16] = baboon plasma, 0.67 min after injection
[17] = baboon plasma, 4.0 min after injection
[18] = baboon plasma, 10 min after injection
[19] = baboon plasma, 30 min after injection
[20] = baboon plasma, 120 min after injection

O=C(CCCN1CCC2(CC1)C(=O)N(CCC[18F])CN2c1ccccc1)c1ccc(F)cc1 [N-(3-[^18 F]fluoropropyl)spiroperidol]
Radiation burden [1]: reduced radiation burden | Uptake and retention in the brain [1]: enhanced uptake and retention in the brain | Striatal accumulation of radioactivity, blocking by (+)-butaclamol ([2]; (+)-butaclamol pretreatment, species not given): blocked stereoselectively by (+)-butaclamol | Radioactivity in the cerebellum after first few minutes [2, 7]: declined rapidly in the cerebellum | Radioactivity in the striatum after first few minutes [2, 7]: increasing for up to 4 hrs in the striatum | Influx into striatum and cerebellum ([2]; baboon, (-)-butaclamol pretreatment, first few minutes): nearly equal for the first few minutes | Percent Recovery of Total ^18 F Applied to C-18 Sep-Pak, H2O Eluate [3, 8]: 11% | Percent Recovery of Total ^18 F Applied to C-18 Sep-Pak, MeOH Eluate [3, 8]: 81% | Percent Recovery of Total ^18 F Applied to C-18 Sep-Pak, NaOH Eluate [3, 8]: 3.1% | Percent of ^18 F in MeOH as N-(3-[^18 F]fluoropropyl)spiroperidol [3, 8]: 94% | Percent Recovery of Total ^18 F Applied to C-18 Sep-Pak, MeOH Eluate ([3]; mouse brain, MeOH Alone): 65% | Percent of ^18 F in MeOH as N-(3-[^18 F]fluoropropyl)spiroperidol ([3]; mouse brain, MeOH Alone): 97% | Percent Recovery of Total ^18 F Applied to C-18 Sep-Pak, H2O Eluate [3, 9]: 4.2% | Percent Recovery of Total ^18 F Applied to C-18 Sep-Pak, MeOH Eluate [3, 9]: 73% | Percent Recovery of Total ^18 F Applied to C-18 Sep-Pak, NaOH Eluate [3, 9]: 1.3% | Percent of ^18 F in MeOH as N-(3-[^18 F]fluoropropyl)spiroperidol [3, 9]: 94% | Stability to metabolic transformation in the central nervous system ([3]; mouse brain, one hour): very stable to metabolic transformation in the central nervous system | remaining at 1 h ([3]; 2X MeOH-HClO4 (washed again)): 76% | remaining at 1 h ([3]; MeOH Alone): 62% | remaining at 1 h ([3]; MeOH-HClO4 extraction, no further washings): 69% | Cerebellum, % injected dose [4, 10]: 0.11 (0.08-0.14) %/organ | Striatum, % injected dose [4, 10]: 0.051 %/organ | Whole Brain, % injected dose [4, 10]: 0.79 (0.57-1.00) %/organ | Cerebellum, % injected dose [4, 11]: 0.019 (0.013-0.025) %/organ | Striatum, % injected dose [4, 11]: 0.013 (0.009-0.018) %/organ | Whole Brain, % injected dose [4, 11]: 0.16 %/organ | Cerebellum, % injected dose [4, 12]: 0.012 %/organ | Striatum, % injected dose [4, 12]: 0.010 %/organ | Whole Brain, % injected dose [4, 12]: 0.097 %/organ | Cerebellum, % injected dose [4, 13]: 0.24 (0.13-0.45) %/organ | Striatum, % injected dose [4, 13]: 0.084 (0.068-0.099) %/organ | Whole Brain, % injected dose [4, 13]: 1.1 (0.9-1.4) %/organ | Cerebellum, % injected dose [4, 14]: 0.040 (0.032-0.048) %/organ | Striatum, % injected dose [4, 14]: 0.089 %/organ | Whole Brain, % injected dose [4, 14]: 0.67 (0.59-0.77) %/organ | Cerebellum, % injected dose [4, 15]: 0.028 (0.023-0.032) %/organ | Striatum, % injected dose [4, 15]: 0.14 (0.11-0.17) %/organ | Whole Brain, % injected dose [4, 15]: 0.56 (0.44-0.63) %/organ | Affinity for dopamine receptors [5]: extremely high affinity for dopamine receptors | Blood / total plasma radioactivity clearance ([6]; baboon): very rapid; also recorded: rapid | Total recovery of ^18 F applied to C-18 Sep-pak ([6]; baboon plasma samples): 90-103% | % Recovery of Total ^18 F Applied to C-18 Sep-Pak, H2O Eluate [6, 16]: 8% | % Recovery of Total ^18 F Applied to C-18 Sep-Pak, MeOH Eluate [6, 16]: 93% | % Recovery of Total ^18 F Applied to C-18 Sep-Pak, NaOH Eluate [6, 16]: 2% | % of ^18 F in MeOH as N-(3-[^18 F]fluoropropyl)spiroperidol [6, 16]: 98% | % Recovery of Total ^18 F Applied to C-18 Sep-Pak, H2O Eluate [6, 17]: 10% | % Recovery of Total ^18 F Applied to C-18 Sep-Pak, MeOH Eluate [6, 17]: 83% | % Recovery of Total ^18 F Applied to C-18 Sep-Pak, NaOH Eluate [6, 17]: 4% | % of ^18 F in MeOH as N-(3-[^18 F]fluoropropyl)spiroperidol [6, 17]: 99% | % Recovery of Total ^18 F Applied to C-18 Sep-Pak, H2O Eluate [6, 18]: 17% | % Recovery of Total ^18 F Applied to C-18 Sep-Pak, MeOH Eluate [6, 18]: 71% | % Recovery of Total ^18 F Applied to C-18 Sep-Pak, NaOH Eluate [6, 18]: 6% | % of ^18 F in MeOH as N-(3-[^18 F]fluoropropyl)spiroperidol [6, 18]: 96% | % Recovery of Total ^18 F Applied to C-18 Sep-Pak, H2O Eluate [6, 19]: 31% | % Recovery of Total ^18 F Applied to C-18 Sep-Pak, MeOH Eluate [6, 19]: 45% | % Recovery of Total ^18 F Applied to C-18 Sep-Pak, NaOH Eluate [6, 19]: 14% | % of ^18 F in MeOH as N-(3-[^18 F]fluoropropyl)spiroperidol [6, 19]: 90% | % Recovery of Total ^18 F Applied to C-18 Sep-Pak, H2O Eluate [6, 20]: 49% | % Recovery of Total ^18 F Applied to C-18 Sep-Pak, MeOH Eluate [6, 20]: 30% | % Recovery of Total ^18 F Applied to C-18 Sep-Pak, NaOH Eluate [6, 20]: 18% | % of ^18 F in MeOH as N-(3-[^18 F]fluoropropyl)spiroperidol [6, 20]: 74% | Appearance of metabolites in the blood ([6]; in vivo): rapid | remaining at 40 s ([6]; in vivo, iv, baboon plasma, 0.67 min after injection, read-out: % of Unchanged N-(3-[^18 F]fluoropropyl)spiroperidol): 91% | remaining at 4 min ([6]; in vivo, iv, baboon plasma, 4.0 min after injection, read-out: % of Unchanged N-(3-[^18 F]fluoropropyl)spiroperidol): 82% | remaining at 10 min ([6]; in vivo, iv, baboon plasma, 10 min after injection, read-out: % of Unchanged N-(3-[^18 F]fluoropropyl)spiroperidol): 68% | remaining at 0.5 h ([6]; in vivo, iv, baboon plasma, 30 min after injection, read-out: % of Unchanged N-(3-[^18 F]fluoropropyl)spiroperidol): 41% | remaining at 2 h ([6]; in vivo, iv, baboon plasma, 120 min after injection, read-out: % of Unchanged N-(3-[^18 F]fluoropropyl)spiroperidol): 22%
